Data on one compound can be found in patent US9956171B2, “Liquid inhalation formulation comprising RPL554” (VERONA PHARMA PLC, priority 2014, dated 2018).

SMILES strings stand for the structures.

The nature of the data set: Particle size distribution of micronized RPL554 by laser diffraction (Malvern Spraytec). It counts as physicochemical. From the text:
The technique used to measure the Dv50 value is typically laser diffraction. For instance, the RPL554 particles typically have a particle size distribution with a Dv50 value of from about 0.2 μm to about 5 μm as measured by laser diffraction. The particle size distribution analysis can be performed by laser diffraction using the Malvern Spraytec in conjunction with a wet dispersion cell. Typically, the instrument parameters for the Malvern Spraytec are as follows: • particle—standard opaque particle; • refractive index Particle—1.50; • refractive index (imaginary)—0.50; • density of particle—1.00; • refractive index of dispersant—1.33; • controller unit—1000 RPM; • measurement type—timed; • initial sampling time—30 s; • obscuration—20%-30%; • dispersant—1% Polysorbate 20 in deionised water.
The particle size distribution of a sample of micronized RPL554 suitable for use in nebulized formulations was evaluated using laser diffraction. The particle size distribution analysis was performed by laser diffraction using the Malvern Spraytec in conjunction with a wet dispersion cell.

In the case of `COc1cc2c(cc1OC)-c1c/c(=N\c3c(C)cc(C)cc3C)n(CCNC(N)=O)c(=O)n1CC2` [RPL554, 9,10-Dimethoxy-2-(2,4,6-trimethylphenylimino)-3-(N-carbamoyl-2-aminoethyl)-3,4,6,7-tetrahydro-2H-pyrimido[6,1-a]isoquinolin-4-one], the Dv10 is 0.69 μm, the Dv50 is given as 1.35 μm and the Dv90 was 2.5 μm.
